Tested on: subjects with primary autonomic failures (MSA, PD, or PAF) and symptomatic nOH
Test: Phase 3 22-week randomized withdrawal study in symptomatic nOH (Example 7)
Assay type: in vivo, human
Set-up: OHSA composite score, LS Mean / OHSA composite score, Mean / OHSA composite score, Median / OHSA composite score, LS Mean Difference / OHDAS item 1 (standing for a short time) score, Mean / OHDAS item 1 (standing for a short time) score, Median / OHDAS item 1 (standing for a short time) score, LS Mean / OHDAS item 1 (standing for a short time) score, LS Mean Difference: scale not given here
Details: for OHSA composite score, Mean / OHSA composite score, Median / OHSA composite score, LS Mean Difference / OHSA composite score, LS Mean: change at week 22, end of 6-week double-blind period; for OHDAS item 1 (standing for a short time) score, LS Mean / OHDAS item 1 (standing for a short time) score, Mean / OHDAS item 1 (standing for a short time) score, Median / OHDAS item 1 (standing for a short time) score, LS Mean Difference: week 22, end of 6-week double-blind period
Method: The study consisted of a 16-week open-label (OL) treatment period with ampreloxetine followed by a 6-week double-blind randomized withdrawal period where subjects were administered either ampreloxetine or placebo.
Eligible subjects were either (i) completers of the study of Example 6 (“Completers Group”), or (ii) symptomatic nOH subjects meeting all applicable study inclusion criteria and none of the applicable exclusion criteria (“De Novo Group”).
A 4-week screening period applied to the De Novo Group only and the Screening visit was conducted in clinic for all De Novo Group subjects.
A total of 203 subjects entered this study (170 subjects from Example 6 (85 from the ampreloxetine group and 85 from the placebo group) and 33 de novo subjects). During the OL period, 55 subjects discontinued treatment. At 16 weeks, 64 subjects were randomized to the ampreloxetine group (6 subjects discontinued the study) and 64 subjects were randomized to the placebo group (3 subjects discontinued the study). A total of 119 subjects completed the study. Of the 128 subjects entering the randomized period, 40 subjects had MSA (31%); 68 subjects had PD (53%); and 20 subjects had PAF (16%) (in each category, the subjects were split equally between ampreloxetine and placebo).
Beginning on Day 2, subjects received a single dose of 10 mg ampreloxetine once daily (QD) and continued thereafter for the 16-week duration of the OL treatment period. Following this 16-week OL treatment period, subjects were randomized to either continue on the active treatment or placebo (“PBO”) for a period of 6 weeks.
Subjects enrolled into the OL period of the study had visits scheduled for Day 15, Day 29, and every 4 weeks thereafter for assessments as outlined in the Schedule of Study Procedures. […] Those subjects not meeting this continuation criterion were discontinued and underwent an end of study visit. The end of study visit was completed within 2 weeks from the date of the last dose.
Following the completion of a total of 16 weeks OL treatment with ampreloxetine (V6), subjects were assessed for randomization in a 1:1 manner. Eligible subjects received 6 weeks of double-blind treatment of ampreloxetine or PBO once daily. Only subjects with OHSA #1 score of ≤7 were eligible for randomization for the double-blind treatment period.
Exploratory assessments included: orthostatic standing test; NMSS; EQ-5D-5L; HADS; and BSFC-s. For subjects with PD, exploratory assessments included: Unified Parkinson's Disease Rating Scale (UPDRS); and Parkinson's Disease Questionaire-8 (PDQ-8). For subjects with MSA, exploratory assessments included: Unified Multiple System Atrophy Rating Scale (UMSARS); and Composite Autonomic Symptom Score-31 (COMPASS-31).
The secondary endpoints included: • (a) Change from baseline in OHSA #1 at Week 6 post randomization (V9, D155); • (b) Change from baseline in OHSA composite score at Week 6 post randomization (V9, D155); • (c) Change from baseline in OHDAS composite score at Week 6 post randomization (V9, D155); • (d) Change from baseline in PGI-S at Week 6 post randomization (V9, D155); • (e) Change from baseline in percentage of time spent in standing position as measured by a wearable device at Week 6 post randomization (V9, D155); and • (f) Change from baseline in average number of steps taken as measured by a wearable device at Week 6 post randomization (V9, D155).

[1] = MSA subjects, Pre treatment baseline OHSA1 <7
[2] = MSA subjects, Pre treatment baseline OHSA1 >2
[3] = MSA subjects, Pre treatment baseline OHSA1 >=7
[4] = MSA subjects, Pre treatment baseline OHSA Composite <5.3
[5] = MSA subjects, Pre treatment baseline OHSA Composite >=5.3
[6] = MSA subjects, RW baseline OHSA1 <=2
[7] = MSA subjects, RW baseline OHSA Composite <2.5
[8] = MSA subjects, RW baseline OHSA Composite >=2.5
[9] = MSA subjects, UMSARS Part IV <4
[10] = MSA subjects, UMSARS Part IV <4, vs placebo
[11] = MSA subjects, UMSARS Part IV >=4
[12] = MSA subjects, UMSARS Part IV >=4, vs placebo
[13] = MSA subjects, nOH onset <1.6 years
[14] = MSA subjects, nOH onset <1.6 years, vs placebo
[15] = MSA subjects, nOH onset >=1.6 years
[16] = MSA subjects, nOH onset >=1.6 years, vs placebo
[17] = MSA subjects, end of 6-week double-blind randomized period, FIG. 3
[18] = MSA subjects, week 22, 10 mg, N 19

SMILES: Fc1cc(F)c(OCc2ccccc2C2CCNCC2)c(F)c1 [Ampreloxetine, 4-[2-(2,4,6-trifluorophenoxymethyl)phenyl]piperidine]
- OHSA composite score, Mean [1]: −0.11
- OHSA composite score, Median [1]: −0.1
- OHSA composite score, LS Mean Difference (MSA subjects, Pre treatment baseline OHSA1 <7, vs placebo): −1.08
- OHSA composite score, LS Mean [2]: −0.77
- OHSA composite score, Mean [2]: −0.96
- OHSA composite score, Median [2]: −0.6
- OHSA composite score, LS Mean Difference (MSA subjects, Pre treatment baseline OHSA1 >2, vs placebo): −1.99
- OHSA composite score, LS Mean [3]: 0.41
- OHSA composite score, Mean [3]: 0.00
- OHSA composite score, Median [3]: 0.5
- OHSA composite score, LS Mean Difference (MSA subjects, Pre treatment baseline OHSA1 >=7, vs placebo): −1.31
- OHSA composite score, LS Mean [4]: −0.71
- OHSA composite score, Mean [4]: −0.56
- OHSA composite score, Median [4]: −0.05
- OHSA composite score, LS Mean Difference (MSA subjects, Pre treatment baseline OHSA Composite <5.3, vs placebo): −1.96
- OHSA composite score, LS Mean [5]: 0.76
- OHSA composite score, Mean [5]: 0.46
- OHSA composite score, Median [5]: 0.3
- OHSA composite score, LS Mean Difference (MSA subjects, Pre treatment baseline OHSA Composite >=5.3, vs placebo): −0.97
- OHSA composite score, LS Mean [6]: 0.74
- OHSA composite score, Mean [6]: 0.86
- OHSA composite score, Median [6]: 0.25
- OHSA composite score, LS Mean Difference (MSA subjects, RW baseline OHSA1 <=2, vs placebo): −0.91
- OHSA composite score, LS Mean [7]: 0.95
- OHSA composite score, Mean [7]: 0.98
- OHSA composite score, Median [7]: 0.4
- OHSA composite score, LS Mean Difference (MSA subjects, RW baseline OHSA Composite <2.5, vs placebo): −0.90
- OHSA composite score, LS Mean [8]: −0.92
- OHSA composite score, Mean [8]: −0.90
- OHSA composite score, Median [8]: −0.5
- OHSA composite score, LS Mean Difference (MSA subjects, RW baseline OHSA Composite >=2.5, vs placebo): −1.96
- OHSA composite score, LS Mean [9]: 0.01
- OHSA composite score, Mean [9]: −0.04
- OHSA composite score, Median [9]: 0.25
- OHSA composite score, LS Mean Difference [10]: −1.70
- OHDAS item 1 (standing for a short time) score, LS Mean [9]: −0.3
- OHDAS item 1 (standing for a short time) score, Mean [9]: −0.3
- OHDAS item 1 (standing for a short time) score, Median [9]: 0.0
- OHDAS item 1 (standing for a short time) score, LS Mean Difference [10]: −2.8
- OHSA composite score, LS Mean [11]: −0.17
- OHSA composite score, Mean [11]: −0.15
- OHSA composite score, Median [11]: −0.15
- OHSA composite score, LS Mean Difference [12]: −1.44
- OHDAS item 1 (standing for a short time) score, LS Mean [11]: 0.5
- OHDAS item 1 (standing for a short time) score, Mean [11]: 1.0
- OHDAS item 1 (standing for a short time) score, Median [11]: 1.0
- OHDAS item 1 (standing for a short time) score, LS Mean Difference [12]: 1.9
- OHSA composite score, LS Mean [13]: 0.48
- OHSA composite score, Mean [13]: 0.43
- OHSA composite score, Median [13]: 0.50
- OHSA composite score, LS Mean Difference [14]: −1.33
- OHDAS item 1 (standing for a short time) score, LS Mean [13]: −0.3
- OHDAS item 1 (standing for a short time) score, Mean [13]: −0.3
- OHDAS item 1 (standing for a short time) score, Median [13]: 0.0
- OHDAS item 1 (standing for a short time) score, LS Mean Difference [14]: −2.4
- OHSA composite score, LS Mean [15]: −0.45
- OHSA composite score, Mean [15]: −0.41
- OHSA composite score, Median [15]: −0.20
- OHSA composite score, LS Mean Difference [16]: −1.56
- OHDAS item 1 (standing for a short time) score, LS Mean [15]: −0.3
- OHDAS item 1 (standing for a short time) score, Mean [15]: −0.1
- OHDAS item 1 (standing for a short time) score, Median [15]: 0.0
- OHDAS item 1 (standing for a short time) score, LS Mean Difference [16]: −0.8
- OHDAS composite score, change (MSA subjects, 6-week double-blind randomized period, placebo +0.97, p=0.196): +0.16
- Systolic blood pressure upon standing for 3 minutes, mean change (MSA subjects, 6-week double-blind randomized period, placebo −12.4): +6.1 mmHg
- Quality of life, EQ-5D-5L visual analog scale (MSA subjects, FIG. 4, vs placebo): quality of life declines less or improves
- OHDAS walking long time [17]: favor placebo
- OHSA and OHDAS composite scores and individual subscores [17]: all favor ampreloxetine
- OHSA item 1 score, change (MSA subjects, end of 6-week double-blind randomized withdrawal period, placebo +1.8, p=0.0861): +0.3
- Anxiety Total Score, Change from Baseline, LS Mean Difference (SE) (MSA subjects, week 22, 10 mg vs placebo, P-value 0.0343): −1.26 (0.573)
- Anxiety Total Score, Change from Baseline, LS Mean (SE) [18]: −1.05 (0.405)
- Anxiety Total Score, Change from Baseline, Mean (SD) [18]: −1.05 (1.900)
- Anxiety Total Score, Change from Baseline, Median [18]: −1.00
- OHQ composite scores for subgroups (subgroups of MSA subjects, week 22, FIG. 6): all favored ampreloxetine

Source: patent publication US20230372318A1, “METHODS FOR TREATING A SUBJECT HAVING MULTIPLE SYSTEM ATROPHY” (Theravance Biopharma R&D IP, LLC, priority 2022, published 2023)
